Results on 5 molecules are retold here after patent US10981932B2, “Macrocyclic indole derivatives” (Bayer Aktiengesellschaft, priority 2016, dated 2021).

For the data set the following is noted: 11-membered ring.

Read-outs that look alike come from different tables or passages of the source.

Consider `CCOC(=O)c1[nH]c2c(-c3c(CC)nn(C)c3CO)c(C)ccc2c1CCCO[Si](C)(C)C(C)(C)C`, for which the ring closure, isolated yield (the molecule shown is the open-chain precursor, crosslinker bond, (2Z)-1,4-dichlorobut-2-ene/NaH, DMF, 65.1 mM) amounted to 68.9%.

As for `CCOC(=O)c1[nH]c2c(-c3c(CO)nn(C)c3CC)cccc2c1CCCO[Si](C)(C)C(C)(C)C`, the ring closure, isolated yield (the molecule shown is the open-chain precursor, crosslinker bond, (2Z)-1,4-dichlorobut-2-ene/NaH, DMF, 65.6 mM) is 75.3%.

`CCOC(=O)c1[nH]c2c(-c3c(CO)nn(CCN4CCOCC4)c3C)c(C)ccc2c1CCCO[Si](C)(C)C(C)(C)C` returned a ring closure, isolated yield (the molecule shown is the open-chain precursor, crosslinker bond, (2Z)-1,4-dichlorobut-2-ene/NaH, DMF, 65.7 mM) of 48.3%.

“(rac)-(E/Z)-ethyl-1,3-dimethyl-7-[3-(naphthalen-1-yloxy)propyl]-1,10,13,15-tetrahydropyrazolo[4′,3′:9,10][1,6]oxazacycloundecino[8,7,6-hi]indole-8-carboxylate” had a ring closure, isolated yield (rcm bond, Grubbs II (10 mol%), DCM, 77.0 mM) of 57%.

On to “(rac)-(E/Z)-ethyl-2,3-dimethyl-7-[3-(naphthalen-1-yloxy)propyl]-2,10,13,15-tetrahydropyrazolo[4′,3′:9,10][1,6]oxazacycloundecino[8,7,6-hi]indole-8-carboxylate”, for which the ring closure, isolated yield (rcm bond, Grubbs II (10 mol%), DCM, 77.8 mM) stood at 15%.
